In patent US20240083943A1, “VEGF-REGULATING PEPTIDES” (IDP DISCOVERY PHARMA, S.L., priority 2020, published 2024):
Positions of bridges follow the written chain, without caps; N, C: chain ends. Non-standard residues stand in square brackets, D forms with d. No end group written: not given here. formula (I), R19:CH3 = not defined here; formula (I) = not defined here

Experiments:
[1] = test system: VEGF protein in ARPE-19 human retinal pigment epithelia cells; test: VEGF ELISA of culture supernatant, CoCl2-induced hypoxia vs normoxia, ARPE-19 cells; assay type: cell-based; conditions: for Relative VEGF (Hipoxia/Normoxia) / Relative VEGF (Hypoxia/Normoxia): peptide 20 μM; for Relative VEGF (Hipoxia/Normoxia): Table 3, untreated ratio 1.87; for Effect on VEGF expression under hypoxia conditions (in words): compared with untreated cells; for Relative VEGF (Hypoxia/Normoxia): 24 hr, 300 μM CoCl2, Table 2, untreated ratio 2.02
Procedure: (§1) MDA-MB-231 human breast cancer cell lines, HaCat immortalized human keratinocyte cell line and ARPE-19 human retinal pigment epithelia (RPE) cell line were purchased from American Type Culture Collection (ATCC, Manassas, VA, USA). Human cells were routinely authenticated using genotype profiling according to the ATCC guidelines. ARPE-19 cells were maintained in DMEM/F12 medium with HEPES supplemented with 10% fetal calf serum and antibiotics.
(§2) A fresh stock solution 0.4 M CoCl2 was prepared in water and added to the medium to obtain the concentration of 50 μM for MDA-MB-231, 200 μM for HaCaT and 300 μM for ARPE-19 cells. Cells were incubated with respective CoCl2 concentration for 24 hr to mimic hypoxic conditions.
The VEGF-content of the supernatant of culture cells was measured by a VEGF-ELISA (Abcam; ab100662; Cambridge, UK) following the manufacturer's instructions. The range of detection of the ELISA was between 8.23 pg/ml and 6,000 pg/ml. […] The same procedure was used in the presence of the peptides of the invention.
(§3) RT-PCR experiments were repeated at least 2 times. For VEGF assays, the mean±S.D of 3 determinations carried out in triplicate were calculated. Statistical significance was determined using Mann-Whitney tests for comparisons of means in a SPPS statistical software for Microsoft Windows, release 6.0 (Professional Statistic, Chicago, IL, USA). Individual comparisons were made using Student's two-tailed, unpaired t-tests. Criterion for significance was P<0.05 for all comparisons.
The objective of this study was to determine the regulation of VEGF by the peptides in hypoxia induced conditions in ARPE-19 cell lines. The VEGF protein (using ELISA kit) was calculated in untreated cells in hypoxia vs. normoxia and a threshold of activity was set. Then, cells were treated with a solution of the corresponding peptide of the invention at 20 μM dissolved in cell culture medium alone (normoxia condition) or in the presence of CoCl2 (hypoxia conditions) and the ratio of VEGF protein amount was calculated. The peptides showing a VEGFhyp/VEGFnorm ratio higher than the ratio in untreated cells were considered as inducers of VEGF protein, while peptides providing a VEGFhyp/VEGFnorm ratio lower than the ratio in untreated cells were considered as reducers of VEGF protein, as reported in table 2.

[2] = test system: VEGF protein in HaCat immortalized human keratinocyte cells; test: VEGF ELISA of culture supernatant, CoCl2-induced hypoxia vs normoxia, HaCat cells; assay type: cell-based; conditions: peptide 10 μM, untreated ratio 1.15
Text: as §1
(§4) MDA-MB-231 and HaCaT were maintained in DMEM medium with glucose 4.5gr/L, glutamine and pyruvate 2 mM and supplemented with 10% fetal calf serum and antibiotics.
as §2
(§5) The VEGF-content of the supernatant of culture cells was measured by a VEGF-ELISA (Abcam; ab100662; Cambridge, UK) following the manufacturer's instructions. […]
as §3, with “Individual comparisons were made using Student's two-tailed, unpaired t-tests. Criterion for significance was P<0.05 for all comparisons.” left out

[3] = test system: VEGF protein in MDA-MB-231 human breast cancer cells; test: VEGF ELISA of culture supernatant, CoCl2-induced hypoxia vs normoxia, MDA-MB-231 cells; assay type: cell-based; conditions: peptide 10 μM, untreated ratio 1.72
Text: as §1, §4, §2, §5
as §3, with “Individual comparisons were made using Student's two-tailed, unpaired t-tests. Criterion for significance was P<0.05 for all comparisons.” left out

[4] = test system: VEGF mRNA in ARPE-19 cells; test: Real time quantitative RT-PCR of VEGF mRNA in ARPE-19 cells; assay type: cell-based, human; conditions: for VEGF mRNA level compared to untreated cells (in words): ARPE-19, 10 μM; for Relative Copy to Control / VEGF mRNA Copy/Copy million of Actine: ARPE-19, peptide 10 μM, 24 hr; for Relative Copy to Control: control = untreated normoxia (1)
Procedure: as §2
Extraction of RNA from indicated cells was performed using the NZY total RNA isolation kit (Nzytech, Lisboa, Portugal) and cDNA prepared using the NZY First-Strand cDNA Synthesis Kit (Nzytech). Primers were designed using Primer Blast software (NCBI) and obtained from Thermo-Fisher. mRNA expression levels were evaluated by qRT-PCR (QuantStudio 5 Real-Time PCR System, Applied Biosystems, Foster City, CA, USA) using SYBR green master mix (Applied Biosystems) and normalized to […]. The following primers were used in this study: β-Actin (forward: 5″-AGAAAATCTGGCACCACACC-3″ (SEQ ID NO: 32); reverse: 5″-GGGGTGTTGAAGGTCTCAAA-3″ (SEQ ID NO: 33)); VGFA (forward: 5″-TACTGCCATCCAATCGAGAC-3″ (SEQ ID NO: 34); reverse: 5″-GCA TGG TGA TGT TGG ACT-3″ (SEQ ID NO: 35)).
as §3
The VEGF expression regulation was also determined by […] in ARPE-19 cells treated with the peptide SEQ ID NO: 17 at 10 μM for 24 hr in normoxia and hypoxia conditions.

[5] = test system: CD31 staining (blood vessels) in MDA-MB-231 tumours; test: Angiogenesis reduction in vivo: CD31 immunohistochemistry of MDA-MB-231 breast tumour xenografts; conditions: MDA-MB-231 xenograft in athymic mice, s.c. 2x week, vs vehicle
Procedure: MDA-MB-231 cells were inoculated (2.5×10^6 cells/animal) in 100 μl of DMEM into the mammary fat pad of athymic mice. When tumours reached a volume of 100 mm3, animals were divided in groups and treated 2× week by s.c. administration with vehicle (2% Tween-20 in 0.9% NaCl sterile, control group) and 2× week by s.c. administration with SEQ ID NO:17 (treated group). At sacrifice, tumours were collected, weighed and formalin-fixed (24 h). Formalin-fixed tumours were processed for paraffin-embedded tissue blocks, which were sent for analysis to the Dept. Bioquimica y Biologic Molecular A, Facultad de Veterinaria, Universidad de Murcia.
Hematoxylin, eosin, diaminobenzidine tetrahydrochloride and hydrogen peroxide were obtained from Merck (Madrid, Spain). The antibody mouse monoclonal anti-CD31 was obtained from Novus.
Tumours washed in PBS, fixed in 10% formalin and embedded in paraffin.
Haematoxylin and eosin (H&E) staining was performed on serial sections of paraffin embedded tissues. For immunohistochemistry, paraffin sections were deparaffinized and subjected to antigen retrieval in sodium citrate buffer (pH 6.0). Tissue endogenous peroxidase was inactivated with 5% hydrogen peroxide. Slides were blocked and incubated with primary antibodies overnight at 4 C. […] The stained slides were scanned using a SCN400F Leica scanner and images were analysed using ImageJ software.

Substance: KASVMRLTISYLRV [SEQ ID NO: 37, 14 amino acid lineal peptide]
- Relative VEGF (Hipoxia/Normoxia) [1]: 2.02

Substance: KASVMRLTISYLRVR [SEQ ID NO: 36, 15 amino acid lineal peptide disclosed in WO2006038208(A2), reference compound]
- Effect on VEGF expression under hypoxia conditions (in words) [1]: no effect in the modulation of VEGF expression
- Relative VEGF (Hipoxia/Normoxia) [1]: 1.89

Substance: LDKASVMRLTISYLRVRK [SEQ ID NO: 13, lineal peptide, 18 amino acids]
- Effect on VEGF expression under hypoxia conditions (in words) [1]: increase VEGF expression under hypoxia conditions
- Relative VEGF (Hypoxia/Normoxia) [1]: 2.59

Substance: SEQ ID NO: 14: cross-linked (stapled) peptide derived from SEQ ID NO: 1 (KA[formula (I), R19:CH3]VMRLTI[formula (I), R19:CH3]YLRVR-NH2; staple 3-10; reading uncertain; also: staple: ‑(CH2)6‑CH:CH‑(CH2)3‑)
- Relative VEGF (Hypoxia/Normoxia) [1]: 1.41

Substance: SEQ ID NO: 16: cross-linked (stapled) peptide derived from SEQ ID NO: 1 (KASVM[formula (I), R19:CH3]LTISYL[formula (I), R19:CH3]VR-NH2; staple 6-13; reading uncertain; also: staple: ‑(CH2)6‑CH:CH‑(CH2)3‑)
- Relative VEGF (Hypoxia/Normoxia) [1]: 1.01
- Relative VEGF (Hypoxia/Normoxia) [2]: 0.88
- Relative VEGF (Hypoxia/Normoxia) [3]: 1.30

Substance: SEQ ID NO: 17: cross-linked (stapled) peptide; differs from SEQ ID NO: 16 only in the C-terminal end (KASVM[formula (I), R19:CH3]LTISYL[formula (I), R19:CH3]VR-OH; staple 6-13; reading uncertain; also: staple: ‑(CH2)6‑CH:CH‑(CH2)3‑)
- Relative VEGF (Hypoxia/Normoxia) [1]: 1.02
- VEGF mRNA level compared to untreated cells (in words) ([4]; hypoxia): reduced significantly the mRNA level
- VEGF mRNA level compared to untreated cells (in words) ([4]; normoxia): just a slide reduction
- Relative Copy to Control ([4]; hypoxia, untreated hypoxia 4.50): 0.76
- VEGF mRNA Copy/Copy million of Actine ([4]; hypoxia, untreated hypoxia 152782): 25873 Copy/Copy million of Actine
- Relative Copy to Control ([4]; normoxia): 0.93
- VEGF mRNA Copy/Copy million of Actine ([4]; normoxia, untreated normoxia 33918): 31454 Copy/Copy million of Actine
- CD31 expression in treated tumours compared with the control (immunohistochemistry) [5]: statistically significant decrease of CD31 expression

Substance: SEQ ID NO: 19: cross-linked (stapled) peptide derived from SEQ ID NO: 1 (LDKA[formula (I), R19:CH3]VMRLTI[formula (I), R19:CH3]YLRVRK-NH2; staple 5-12; reading uncertain; also: staple: ‑(CH2)6‑CH:CH‑(CH2)3‑)
- Relative VEGF (Hypoxia/Normoxia) [1]: 1.39

Substance: SEQ ID NO: 20: cross-linked (stapled) peptide derived from SEQ ID NO: 1 (LDKASV[formula (I), R19:CH3]RLTISY[formula (I), R19:CH3]RVRK-NH2; staple 7-14; reading uncertain; also: staple: ‑(CH2)6‑CH:CH‑(CH2)3‑)
- Relative VEGF (Hypoxia/Normoxia) [1]: 0.99

Substance: SEQ ID NO: 21: cross-linked (stapled) peptide derived from SEQ ID NO: 1 (LDKASVM[formula (I), R19:CH3]LTISYL[formula (I), R19:CH3]VRK-NH2; staple 8-15; reading uncertain; also: staple: ‑(CH2)6‑CH:CH‑(CH2)3‑)
- Relative VEGF (Hypoxia/Normoxia) [1]: 1.36

Substance: SEQ ID NO: 29: peptide of the second aspect with linker biradical, derived from SEQ ID NO: 22 (RSRRSKE[formula (I), R19:CH3]EVFYEL[formula (I), R19:CH3]HQ-NH2; staple 8-15; reading uncertain; also: staple: ‑(CH2)6‑CH:CH‑(CH2)3‑)
- Relative VEGF (Hypoxia/Normoxia) [1]: 2.60

Substance: SEQ ID NO: 30: peptide of the second aspect with linker biradical, derived from SEQ ID NO: 22 (RSRRSKESE[formula (I)]FYELAH[formula (I)]-NH2; staple 10-17; reading uncertain; also: staple: ‑(CH2)6‑CH:CH‑(CH2)3‑)
- Relative VEGF (Hypoxia/Normoxia) [1]: 2.70

Substance: SEQ ID NO: 31: peptide of the second aspect with linker biradical, derived from SEQ ID NO: 22 (RS[formula (I)]RSKESE[formula (I)]FYELAHQLP-NH2; staple 3-10; reading uncertain; also: staple: ‑(CH2)6‑CH:CH‑(CH2)3‑)
- Relative VEGF (Hypoxia/Normoxia) [1]: 2.64
